SMILES strings stand for the structures.

Among the data in ChEMBL document CHEMBL5728660, “Monosaccharide amine and 3-nitro-2-phenyl-2H-chromene based inhibitors of glucose kinases” (2021) are IC50 values, retold here.

The nature of this experiment: enzyme-inhibition screening assay: The 16 compounds showing substantial inhibition against TcGlcK at compound concentrations of 20 μM were then examined in a confirmatory assay in which the amino sugar analogues were at a concentration of 20 μM and were tested against the assay's only coupling enzyme, G6PDH, to verify enzyme activity; the assay was performed in quadruplicate. […] These confirmed hits included representatives from all three monosaccharide scaffolds tested (i.e., D-GlcN, D-ManN, and D-GalN).

In general, IC50 refers to the point on the concentration scale where inhibition reaches its midpoint. `O=C(N[C@H]1C(O)O[C@H](CO)[C@@H](O)[C@@H]1O)c1ccccc1` (stereo partly specified) returned a half-inhibitory concentration (IC50) of 16.1 µM.
